Data published in PMC12326981, “Novel C5α-substituted carbapenems enhance Mycobacterium abscessus killing via selective target binding and reduced hydrolysis by BlaMab” (Antimicrobial Agents and Chemotherapy, 2025).
Read-outs that look alike come from different tables or passages of the source. Marks after values point to notes of the source that are not given here.

What was measured:
[1] = molecular target: BlaMab (Mycobacteroides abscessus, UniProt B1MCI3); assay: Mass spectrometric analysis of acyl-enzyme adducts; assay type: binding; set-up: key to Mass of protein after incubation (mass shift): (.) indicates no detectable binding; conditions: for adduct formation with BlaMab: mass spectrometry
BlaMab, sequence (B1MCI3 entry or part of it): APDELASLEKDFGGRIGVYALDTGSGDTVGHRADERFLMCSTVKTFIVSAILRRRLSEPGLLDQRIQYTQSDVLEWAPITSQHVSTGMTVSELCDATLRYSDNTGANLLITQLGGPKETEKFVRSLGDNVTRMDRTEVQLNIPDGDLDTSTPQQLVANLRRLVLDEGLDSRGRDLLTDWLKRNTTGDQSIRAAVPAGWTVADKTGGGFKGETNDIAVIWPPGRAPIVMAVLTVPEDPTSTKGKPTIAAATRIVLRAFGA
Protocol: (§1) Truncated sequences of BlaMab (Δ1–30 blaMab), LDT1–5, DDC, PBP B, PonA2, and PBP-lipo (Δ1–41) were synthesized by Celtek Biosciences (Franklin, TN) and cloned into the pET28(a)+ vector. Purification of LDTs and PBPs was carried out as previously described ([15], [16], [20]). Briefly, clones were transformed into Escherichia coli BL21 (DE3), and protein expression was induced with 0.25 mM isopropyl β-d-1-thiogalactopyranoside. Cell pellets were resuspended in buffer containing 50 mM Tris (pH 8.0), 400 mM sodium chloride, and 1 mM Tris(2-carboxyethyl)phosphine hydrochloride and lysed by sonication. After centrifugation, the supernatant was purified using a His Prep FF column and eluted with 500 mM imidazole.
(§2) The purified proteins were incubated at room temperature with JDB/NA-1-157 and JDB/NA-1-208 at a molar ratio of 1:10 for 2 h. A quadrupole time-of-flight mass spectrometer (Waters Synapt-G2-Si) with electrospray ionization and a Waters Acquity H-Class UPLC system were used to analyze the samples. The liquid chromatography conditions were as follows: a BEH C18 column (1.7 µm, 2.1 × 50 mm) and a mobile phase consisting of 0.1% formic acid in water and 0.1% formic acid in acetonitrile, with a gradient elution from 10% to 90% acetonitrile over 11 min at a flow rate of 0.5 mL/min. The MS settings were optimized with a capillary voltage of 3 kV, a sampling cone voltage of 35 V, and source and desolvation temperatures of 100°C and 500°C, respectively. Gas flow rates were 100 L/h for the cone and 800 L/h for desolvation. The mass accuracy was maintained at ±5 Da.

[2] = system: Mab strain ATCC 19977 and three clinical isolates (Mab122, Mab686, and UH01); assay: Static concentration time-kill (SCTK) assay; assay type: cell-based, Mycobacterium abscessus
Protocol: SCTK studies were conducted over 5 days in Middlebrook 7H9 broth supplemented with 10% (vol/vol) OADC, 0.2% (vol/vol) glycerol, and 0.05% (vol/vol) Tween 80 in duplicate. The efficacy of JDB/NA-1-157 and JDB/NA-208 was evaluated using Mab strain ATCC 19977 and three clinical isolates (Mab122, Mab686, and UH01) at an initial inoculum of 10^5.5–10^6.3 CFU/mL. […] Bacterial killing was assessed across a wide range of concentrations for JDB/NA-1-157 and JDB/NA-1-208 individually (0.0625–64.0 mg/L).
For the combination study, the concentrations of JDB/NA-1-157 and JDB/NA-1-208 were selected based on MIC results and time-killing profiles of the single-drug study, while the concentrations of other β-lactams and BLIs were chosen based on clinically relevant levels, determined from the predicted average unbound steady-state concentrations (fCss,avg) in plasma at clinically relevant doses ([27]). The drug concentrations used were JDB/NA-1-157, 1 mg/L; JDB/NA-1-208, 8 mg/L; imipenem, 12 mg/L; ceftaroline, 8 mg/L; cefuroxime, 8 mg/L; amoxicillin, 2 mg/L; avibactam, 4 mg/L; durlobactam, 12 mg/L; amikacin, 12 mg/L; clarithromycin, 0.3 mg/L; and cefoxitin, 7 mg/L. The SOC regimen was included for comparison of efficacy. On day 3, the broth was replaced with fresh broth containing the corresponding drug concentrations. For viable cell counts, 100 µL of undiluted or appropriately diluted samples was subcultured on Middlebrook 7H10 agar plates supplemented with 1% (vol/vol) OADC, 0.2% glycerol, and 0.05% (vol/vol) Tween 80. All samples were washed twice with sterile 0.9% saline prior to serial dilution or plating.

[3] = system: DDC; assay: Mass spectrometric analysis of acyl-enzyme adducts; assay type: binding, Mycobacterium abscessus; set-up: key: (.) indicates no detectable binding; conditions: DDC (29,750); 1:10 molar ratio, 2 h; accuracy ±5 Da
Protocol: as §1, §2

[4] = molecular target: LDT5 (Mycobacteroides abscessus, UniProt B1MHQ4); assay: Mass spectrometric analysis of acyl-enzyme adducts; assay type: binding, Mycobacterium abscessus; set-up: key: (.) indicates no detectable binding; conditions: LDT5 (28,220); 1:10 molar ratio, 2 h; accuracy ±5 Da
LDT5, sequence (B1MHQ4 entry or part of it): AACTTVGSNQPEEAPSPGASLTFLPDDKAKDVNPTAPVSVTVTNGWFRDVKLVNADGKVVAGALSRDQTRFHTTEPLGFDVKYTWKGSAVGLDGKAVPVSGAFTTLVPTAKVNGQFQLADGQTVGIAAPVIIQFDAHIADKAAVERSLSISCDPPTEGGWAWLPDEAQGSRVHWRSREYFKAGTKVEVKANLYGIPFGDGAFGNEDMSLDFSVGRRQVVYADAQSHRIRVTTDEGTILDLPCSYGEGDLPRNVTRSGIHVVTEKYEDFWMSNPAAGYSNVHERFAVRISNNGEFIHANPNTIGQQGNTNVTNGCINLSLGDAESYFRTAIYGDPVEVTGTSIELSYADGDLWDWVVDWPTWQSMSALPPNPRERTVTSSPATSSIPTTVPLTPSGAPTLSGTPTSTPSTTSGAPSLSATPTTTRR
Protocol: as §1, §2

[5] = molecular target: LDT3 (Mycobacteroides abscessus, UniProt B1MHQ4); assay: Mass spectrometric analysis of acyl-enzyme adducts; assay type: binding, Mycobacterium abscessus; conditions: LDT3 (44,795); 1:10 molar ratio, 2 h; accuracy ±5 Da
LDT3, sequence (B1MHQ4 entry or part of it): as above
Protocol: as §1, §2

[6] = molecular target: LDT4 (Mycobacteroides abscessus, UniProt B1MKW1); assay: Mass spectrometric analysis of acyl-enzyme adducts; assay type: binding, Mycobacterium abscessus; conditions: LDT4 (32,567); 1:10 molar ratio, 2 h; accuracy ±5 Da
LDT4, sequence (B1MKW1 entry or part of it): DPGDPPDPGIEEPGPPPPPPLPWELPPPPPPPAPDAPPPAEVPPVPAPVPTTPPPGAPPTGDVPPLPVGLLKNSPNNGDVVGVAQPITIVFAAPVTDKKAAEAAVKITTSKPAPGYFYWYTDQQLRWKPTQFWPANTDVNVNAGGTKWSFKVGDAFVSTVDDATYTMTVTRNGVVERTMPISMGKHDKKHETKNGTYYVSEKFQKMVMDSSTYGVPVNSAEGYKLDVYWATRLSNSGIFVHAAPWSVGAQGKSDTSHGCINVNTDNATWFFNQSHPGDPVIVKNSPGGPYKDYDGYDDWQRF
Protocol: as §1, §2

[7] = molecular target: PBP B (Mycobacteroides abscessus, UniProt B1MP31); assay: Apparent inhibition constant (nitrocefin, Dixon plot); assay type: biochemical; conditions: PBP B
PBP B, sequence (B1MP31 entry or part of it): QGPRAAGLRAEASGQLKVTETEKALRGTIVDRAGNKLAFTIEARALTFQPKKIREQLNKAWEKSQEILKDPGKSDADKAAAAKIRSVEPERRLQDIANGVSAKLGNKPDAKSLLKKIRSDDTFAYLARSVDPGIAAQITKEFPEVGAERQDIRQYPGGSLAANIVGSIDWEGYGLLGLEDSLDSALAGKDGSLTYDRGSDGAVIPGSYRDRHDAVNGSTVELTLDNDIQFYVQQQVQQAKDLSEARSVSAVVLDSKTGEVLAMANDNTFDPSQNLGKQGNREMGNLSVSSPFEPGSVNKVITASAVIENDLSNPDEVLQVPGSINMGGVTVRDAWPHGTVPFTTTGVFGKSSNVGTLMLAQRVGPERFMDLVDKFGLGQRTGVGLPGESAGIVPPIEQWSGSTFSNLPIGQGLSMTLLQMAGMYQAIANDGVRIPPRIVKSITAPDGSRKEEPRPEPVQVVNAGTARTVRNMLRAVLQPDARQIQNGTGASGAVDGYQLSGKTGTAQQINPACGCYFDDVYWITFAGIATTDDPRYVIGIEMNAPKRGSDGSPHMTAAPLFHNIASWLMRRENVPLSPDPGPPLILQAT
Protocol: Steady-state kinetic studies with JDB/NA-1-157 and JDB/NA-1-208 were performed using purified LDTs and PBPs, including LDT1–5, PBP-B, PBP-lipo, and D,D-carboxypeptidase. The assays were conducted on a BioTek Synergy2 multimode reader equipped with Gen5 software. To determine the Michaelis constant (Km^NCF) for each LDT and PBP, a wide range of NCF concentrations was tested, while the enzyme concentrations were fixed. Absorbance changes at 482 nm were monitored over 10 min. Steady-state kinetic parameters (Vmax and Km) were derived by fitting the experimental data to the Henri–Michaelis–Menten equation using nonlinear least-squares regression in GraphPad Prism version 9. The reaction velocity (v) at a given substrate concentration ([S]) was calculated using equation 2: […]
The apparent inhibition constants (Ki,app) for JDB/NA-1-157 and JDB/NA-1-208 were determined under the following conditions: an NCF concentration of 5 × Km, fixed concentrations of LDT or PBP enzymes, and varying concentrations of JDB/NA-1-157 and JDB/NA-1-208. Absorbance changes at 482 nm were monitored over a 30 min period for each inhibitor concentration. The data were linearized using a Dixon plot, which involves plotting the reciprocal of the absorbance change (1/ΔA) against the concentrations of JDB/NA-1-157 or JDB/NA-1-208. Apparent Ki,app values were derived from the intersection points on the Dixon plot and were subsequently corrected for substrate concentration and enzyme affinity using equation 3:
(3) Ki,app=observed Ki,app/1+[NCF]/Km NCF.

SMILES | Mass of protein after incubation (mass shift) ([1]; BlaMab (28,433), 1:10 molar ratio, 2 h, room temperature, accuracy ±5 Da) | adduct formation with BlaMab [1] | effect of combining with avibactam on killing ([2]; 8 mg/L + avibactam 4 mg/L) | bacterial killing in combination ([2]; 8 mg/L with ceftaroline, cefuroxime, amoxicillin (with avibactam), or durlobactam) | log10 CFU killing ([2]; single agent, 64 mg/L) | Mass of protein after incubation (mass shift) [3] | Mass of protein after incubation (mass shift) [4] | Mass of protein after incubation (mass shift) [5] | Mass of protein after incubation (mass shift) [6] | Ki ([7]; read-out: Ki,app (converted)) [nM] | bacterial killing in combination ([2]; 1 mg/L with BLIs (avibactam or durlobactam) or β-lactams (cefuroxime, ceftaroline, or amoxicillin), by day 3, ATCC 19977, Mab122, Mab686) | bacterial killing on addition of avibactam ([2]; ATCC 19977, JDB/NA-1-157 1 mg/L + avibactam 4 mg/L) | log10 CFU/mL reduction ([2]; single agent, 4 mg/L, over 5 days, ATCC 19977 and clinical isolates) | bacterial killing at high concentration ([2]; single agent, 16–64 mg/L, 5 days) | Ki ([7]; Ki,app) [nM]
CC[C@]12CC(S[C@@H]3CN[C@H](C(=O)N(C)C)C3)=C(C(=O)O)N1C(=O)[C@@H]2[C@@H](C)O [JDB/NA-1-208] | 28,434 (.)^b | did not form an adduct | no significant effect | near-complete eradication | ~ 3 log10 CFU | 29,750 (.) | 28,617 (+397) Da | 45,194 (+397) Da | 32,964 (+397) Da | 80.5 | – | – | – | – | –
C[C@@H](O)[C@H]1C(=O)N2C(C(=O)O)=C(S[C@@H]3CN[C@H](C(=O)N(C)C)C3)C[C@]12C [JDB/NA-1-157] | – | formed a complex | – | – | – | 30,134 (+383) Da | 28,219 (.) | 45,178 (+383) Da | 32,950 (+383) Da | – | near-complete eradication | up to 2.5 log10 CFU/mL | 1.5–2.0 log10 CFU/mL | near-complete eradication | 4900
